ChEMBL document CHEMBL1201862, “PubChem BioAssay data set” (2004)
Blank lines part the entries; values can stand above or below the compound they belong to. The source made the active and inactive calls.

What was measured:
[1] = biological target: T1, Alkaline phosphatase, tissue-nonspecific isozyme (Homo sapiens, UniProt P05186); assay: activation of tissue-nonspecific alkaline phosphatase – biochemical, TNAP isozyme, mouse IAP uHTS hits, selectivity assay for mouse IAP activator project, dose response (AID 488880); format: functional
T1 sequence (P05186 whole entry): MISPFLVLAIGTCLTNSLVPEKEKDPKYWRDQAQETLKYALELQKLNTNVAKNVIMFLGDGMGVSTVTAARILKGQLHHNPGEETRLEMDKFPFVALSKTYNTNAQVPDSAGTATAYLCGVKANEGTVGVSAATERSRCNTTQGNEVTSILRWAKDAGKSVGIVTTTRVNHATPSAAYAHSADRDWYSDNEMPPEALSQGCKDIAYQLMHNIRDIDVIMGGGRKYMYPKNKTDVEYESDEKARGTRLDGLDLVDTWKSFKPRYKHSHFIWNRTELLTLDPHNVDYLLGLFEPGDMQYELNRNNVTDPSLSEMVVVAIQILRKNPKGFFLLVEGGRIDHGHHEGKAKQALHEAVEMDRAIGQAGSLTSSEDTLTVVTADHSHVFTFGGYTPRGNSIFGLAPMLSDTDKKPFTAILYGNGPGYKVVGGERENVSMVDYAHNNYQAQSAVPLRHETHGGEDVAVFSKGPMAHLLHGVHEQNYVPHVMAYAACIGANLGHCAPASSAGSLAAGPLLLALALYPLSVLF

[2] = biological target: T2, Apoptotic protease-activating factor 1 (Homo sapiens, UniProt O14727); format: functional
T2 sequence (O14727 whole entry): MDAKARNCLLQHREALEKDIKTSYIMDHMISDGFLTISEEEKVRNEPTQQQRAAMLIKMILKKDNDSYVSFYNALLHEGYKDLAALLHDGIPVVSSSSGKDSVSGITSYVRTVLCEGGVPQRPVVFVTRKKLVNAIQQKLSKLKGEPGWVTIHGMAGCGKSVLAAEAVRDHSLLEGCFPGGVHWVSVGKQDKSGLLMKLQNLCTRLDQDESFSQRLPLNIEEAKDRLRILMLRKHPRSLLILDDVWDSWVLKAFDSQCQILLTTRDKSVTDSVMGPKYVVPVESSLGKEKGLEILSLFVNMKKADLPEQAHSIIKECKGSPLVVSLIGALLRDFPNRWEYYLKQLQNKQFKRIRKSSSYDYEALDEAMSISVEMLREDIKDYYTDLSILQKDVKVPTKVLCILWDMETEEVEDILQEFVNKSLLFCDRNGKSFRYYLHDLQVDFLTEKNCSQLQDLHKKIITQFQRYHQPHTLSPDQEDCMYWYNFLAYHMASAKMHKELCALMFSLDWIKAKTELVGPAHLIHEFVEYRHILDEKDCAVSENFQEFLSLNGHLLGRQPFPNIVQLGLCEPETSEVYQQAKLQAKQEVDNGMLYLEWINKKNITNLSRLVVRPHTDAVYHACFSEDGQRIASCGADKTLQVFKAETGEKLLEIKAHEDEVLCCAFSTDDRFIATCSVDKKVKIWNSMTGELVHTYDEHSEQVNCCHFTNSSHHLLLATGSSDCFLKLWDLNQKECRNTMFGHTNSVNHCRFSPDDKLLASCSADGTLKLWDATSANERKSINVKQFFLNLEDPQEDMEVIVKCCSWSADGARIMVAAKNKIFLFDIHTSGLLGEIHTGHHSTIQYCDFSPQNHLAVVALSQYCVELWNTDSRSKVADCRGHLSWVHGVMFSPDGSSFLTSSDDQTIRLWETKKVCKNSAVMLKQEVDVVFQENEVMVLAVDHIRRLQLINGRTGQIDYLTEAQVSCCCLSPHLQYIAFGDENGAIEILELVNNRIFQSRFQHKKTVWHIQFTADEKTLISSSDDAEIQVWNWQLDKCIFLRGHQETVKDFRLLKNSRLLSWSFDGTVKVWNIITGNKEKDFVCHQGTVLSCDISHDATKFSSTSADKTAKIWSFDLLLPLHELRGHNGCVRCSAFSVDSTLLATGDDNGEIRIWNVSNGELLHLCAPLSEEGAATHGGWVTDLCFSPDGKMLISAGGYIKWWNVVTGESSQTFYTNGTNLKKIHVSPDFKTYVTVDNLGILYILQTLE

[3] = HEK-293T viability loss after treatment – luminescence, T-cell screen hits, cytotoxicity control for TCR NF-kB inhibitor project, dose response (AID 489026); format: functional, cell-based;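 also: cells exposed to compound about 14 hours before the viability readout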
[4] = biological target: Intestinal-type alkaline phosphatase (Homo sapiens, UniProt P09923); assay: activation of human intestinal alkaline phosphatase – biochemical, dose response (AID 488873); format: functional
[5] = biological target: Intestinal-type alkaline phosphatase (Mus musculus, UniProt P24822); assay: mouse intestinal alkaline phosphatase activators, dose response, biochemical, luminescence, uHTS hits (AID 488783); format: functional
[6] = biological target: Peroxisome proliferator-activated receptor gamma/Nuclear receptor coactivator 2 (Homo sapiens, UniProt P37231); assay: (§1) TR-FRET dose response biochemical High Throughput Screening assay for agonists of the steroid receptor coactivator 2 (SRC-2) recruitment by the peroxisome proliferator-activated receptor gamma (PPAR gamma): non-selective agonists. [Related pubchem assays: 1297, 1032 ]; format: functional
[7] = biological target: Peroxisome proliferator-activated receptor gamma/Nuclear receptor coactivator 3 (Homo sapiens, UniProt P37231); assay: as §1, with “3 (SRC-3)” for “2 (SRC-2)”, “1301 (Confirmation screen.), 1048 (Primary screen.)]” for “1297, 1032 ]”; format: functional
[8] = biological target: Peroxisome proliferator-activated receptor gamma/Nuclear receptor coactivator 1 (Homo sapiens, UniProt P37231); assay: as §1, with “1 (SRC-1)” for “2 (SRC-2)”, “assays (depositor defined):AID1300, AID1808, AID504735, AID631]” for “assays: 1297, 1032 ]”; format: protein assay
[9] = biological target: T3, Tyrosine-protein phosphatase non-receptor type 22 (Homo sapiens, UniProt Q9Y2R2); format: functional
T3 sequence (Q9Y2R2 whole entry): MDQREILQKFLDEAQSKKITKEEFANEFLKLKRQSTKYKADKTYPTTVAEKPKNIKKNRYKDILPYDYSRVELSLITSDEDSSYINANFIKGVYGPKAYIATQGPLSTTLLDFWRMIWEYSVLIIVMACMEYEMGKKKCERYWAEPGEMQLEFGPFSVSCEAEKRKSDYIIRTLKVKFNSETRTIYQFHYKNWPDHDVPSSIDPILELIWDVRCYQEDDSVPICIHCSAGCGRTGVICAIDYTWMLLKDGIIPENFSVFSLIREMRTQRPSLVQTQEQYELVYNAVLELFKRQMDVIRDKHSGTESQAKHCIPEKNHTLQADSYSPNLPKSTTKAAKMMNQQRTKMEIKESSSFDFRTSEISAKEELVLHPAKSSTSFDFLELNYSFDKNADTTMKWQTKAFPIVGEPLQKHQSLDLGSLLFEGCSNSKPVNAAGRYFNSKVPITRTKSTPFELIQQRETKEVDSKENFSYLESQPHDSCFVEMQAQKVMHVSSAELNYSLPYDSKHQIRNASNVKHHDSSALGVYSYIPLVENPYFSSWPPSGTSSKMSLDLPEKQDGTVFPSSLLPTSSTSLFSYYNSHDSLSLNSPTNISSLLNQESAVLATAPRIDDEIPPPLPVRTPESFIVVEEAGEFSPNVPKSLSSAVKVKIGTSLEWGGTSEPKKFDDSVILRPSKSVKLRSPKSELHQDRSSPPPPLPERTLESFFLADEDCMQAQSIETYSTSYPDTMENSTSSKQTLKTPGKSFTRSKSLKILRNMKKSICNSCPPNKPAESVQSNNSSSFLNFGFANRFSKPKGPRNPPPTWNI

[10] = biological target: T4, Tyrosine-protein phosphatase non-receptor type 7 (Homo sapiens, UniProt P35236); format: functional
T4 sequence (P35236 whole entry): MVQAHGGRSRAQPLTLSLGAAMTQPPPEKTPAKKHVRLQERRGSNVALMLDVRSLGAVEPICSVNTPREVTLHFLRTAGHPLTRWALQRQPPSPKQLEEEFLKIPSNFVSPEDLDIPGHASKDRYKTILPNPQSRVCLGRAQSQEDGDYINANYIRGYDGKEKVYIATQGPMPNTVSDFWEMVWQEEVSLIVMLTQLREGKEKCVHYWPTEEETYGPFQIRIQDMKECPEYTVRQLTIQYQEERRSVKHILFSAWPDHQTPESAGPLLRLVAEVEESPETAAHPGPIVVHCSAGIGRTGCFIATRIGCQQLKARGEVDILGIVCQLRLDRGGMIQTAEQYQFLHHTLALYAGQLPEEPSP

[11] = biological target: T3, Tyrosine-protein phosphatase non-receptor type 22; format: functional; remark: listed apart in the source
Fatty acid synthase [12] = biological target: T5, Fatty acid synthase (Homo sapiens, UniProt P49327); assay: inhibition of human FAS-TE enzyme activity – biochemical, endpoint fluorescence intensity, uHTS hits, dose response (AID 624327); format: functional;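 also: fluorescence from hydrolysis of an O-methyl fluorescein acyl ester substrate by the enzyme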
T5 sequence (P49327 whole entry): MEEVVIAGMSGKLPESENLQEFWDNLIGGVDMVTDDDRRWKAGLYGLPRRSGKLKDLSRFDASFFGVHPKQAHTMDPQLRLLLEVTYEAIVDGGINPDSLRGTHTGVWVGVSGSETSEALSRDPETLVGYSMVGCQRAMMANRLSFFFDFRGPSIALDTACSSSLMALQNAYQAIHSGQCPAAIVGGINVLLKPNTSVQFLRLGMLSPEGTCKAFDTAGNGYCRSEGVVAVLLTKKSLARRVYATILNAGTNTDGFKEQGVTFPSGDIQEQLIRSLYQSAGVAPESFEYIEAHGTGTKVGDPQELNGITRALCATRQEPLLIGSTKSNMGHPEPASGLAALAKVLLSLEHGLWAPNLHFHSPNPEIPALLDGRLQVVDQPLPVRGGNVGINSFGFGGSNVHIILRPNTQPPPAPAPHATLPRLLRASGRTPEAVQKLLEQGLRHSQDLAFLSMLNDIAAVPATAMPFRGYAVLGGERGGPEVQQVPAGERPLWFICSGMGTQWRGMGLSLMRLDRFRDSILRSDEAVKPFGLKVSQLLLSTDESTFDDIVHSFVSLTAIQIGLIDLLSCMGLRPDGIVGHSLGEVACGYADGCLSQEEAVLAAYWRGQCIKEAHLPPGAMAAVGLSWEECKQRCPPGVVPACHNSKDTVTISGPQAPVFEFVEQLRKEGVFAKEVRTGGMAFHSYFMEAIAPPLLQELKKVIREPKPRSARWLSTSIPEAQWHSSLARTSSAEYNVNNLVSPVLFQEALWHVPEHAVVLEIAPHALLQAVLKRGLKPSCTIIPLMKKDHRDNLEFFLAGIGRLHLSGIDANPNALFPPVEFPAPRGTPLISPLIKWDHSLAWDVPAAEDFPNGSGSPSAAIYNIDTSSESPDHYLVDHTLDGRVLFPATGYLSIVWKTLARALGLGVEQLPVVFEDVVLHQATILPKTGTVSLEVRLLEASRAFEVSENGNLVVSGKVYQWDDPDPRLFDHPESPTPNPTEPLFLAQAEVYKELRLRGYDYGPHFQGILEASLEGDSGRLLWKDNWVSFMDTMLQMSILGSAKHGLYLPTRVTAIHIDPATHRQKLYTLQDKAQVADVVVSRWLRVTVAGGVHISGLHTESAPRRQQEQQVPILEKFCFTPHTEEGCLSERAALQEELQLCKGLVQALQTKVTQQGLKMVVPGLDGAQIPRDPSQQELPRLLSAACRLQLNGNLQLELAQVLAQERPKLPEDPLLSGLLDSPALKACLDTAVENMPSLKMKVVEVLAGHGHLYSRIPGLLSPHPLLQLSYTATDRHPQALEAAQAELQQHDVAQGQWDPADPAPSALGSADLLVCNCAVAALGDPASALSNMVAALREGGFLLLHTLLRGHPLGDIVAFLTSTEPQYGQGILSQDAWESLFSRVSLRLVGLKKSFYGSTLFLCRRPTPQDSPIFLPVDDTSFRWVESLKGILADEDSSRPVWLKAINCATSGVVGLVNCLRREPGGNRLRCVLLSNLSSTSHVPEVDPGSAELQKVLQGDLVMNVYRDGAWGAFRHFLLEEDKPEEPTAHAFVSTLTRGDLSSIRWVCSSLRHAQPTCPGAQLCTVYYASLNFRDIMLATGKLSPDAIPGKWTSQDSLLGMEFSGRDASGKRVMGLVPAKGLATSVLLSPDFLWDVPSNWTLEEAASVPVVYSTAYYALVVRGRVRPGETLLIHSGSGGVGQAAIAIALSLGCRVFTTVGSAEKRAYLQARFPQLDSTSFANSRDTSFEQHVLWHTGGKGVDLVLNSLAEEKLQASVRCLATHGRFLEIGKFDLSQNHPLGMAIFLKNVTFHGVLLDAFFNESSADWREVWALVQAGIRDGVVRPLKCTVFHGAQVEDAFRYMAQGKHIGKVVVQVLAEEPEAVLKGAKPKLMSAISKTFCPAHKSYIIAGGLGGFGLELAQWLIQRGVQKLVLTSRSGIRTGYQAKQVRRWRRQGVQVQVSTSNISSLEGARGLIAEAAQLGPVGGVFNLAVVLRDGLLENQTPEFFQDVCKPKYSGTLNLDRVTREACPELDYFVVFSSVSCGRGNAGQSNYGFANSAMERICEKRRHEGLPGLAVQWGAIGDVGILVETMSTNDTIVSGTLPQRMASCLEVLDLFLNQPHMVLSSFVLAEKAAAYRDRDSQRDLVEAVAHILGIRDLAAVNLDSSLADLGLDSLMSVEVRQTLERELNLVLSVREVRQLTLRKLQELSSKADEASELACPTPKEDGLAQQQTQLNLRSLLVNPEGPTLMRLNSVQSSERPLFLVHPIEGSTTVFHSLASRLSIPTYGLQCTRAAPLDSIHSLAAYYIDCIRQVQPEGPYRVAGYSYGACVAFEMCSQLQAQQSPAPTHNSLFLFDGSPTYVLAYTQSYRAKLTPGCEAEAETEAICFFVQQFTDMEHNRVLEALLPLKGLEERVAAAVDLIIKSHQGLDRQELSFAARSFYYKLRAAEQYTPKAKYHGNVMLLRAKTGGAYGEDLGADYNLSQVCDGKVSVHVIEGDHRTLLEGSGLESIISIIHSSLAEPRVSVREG

Fatty acid synthase [13] = biological target: T5, Fatty acid synthase; assay: inhibition of human FAS-TE enzyme activity – biochemical, kinetic fluorescence intensity, dose response (AID 624326); format: functional;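 also: rate of fluorescence rise from hydrolysis of a fluorogenic O-methyl fluorescein ester substrate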
[14] = biological target: Endoplasmic reticulum aminopeptidase 1 (Homo sapiens, UniProt Q9NZ08); assay: inhibition of human ERAP1 enzyme activity – biochemical, cherry-pick, set 2, plate reader, dose response (AID 743314)
[15] = biological target: Sphingosine 1-phosphate receptor 2 (Homo sapiens, UniProt O95136); assay: Dose Response Cell Based Assay for Agonists of the S1P2 Receptor. [Related pubchem assays: 729, 736, 843 ]; format: functional
[16] = biological target: Sphingosine 1-phosphate receptor 1 (Homo sapiens, UniProt P21453); assay: Fluorescence-based counterscreen assay for S1P4 agonists: Cell-based dose response high throughput screening assay to identify agonists of the Sphingosine 1-Phosphate Receptor 1 (S1P1). [Related pubchem assays (depositor defined):AID1509, AID1523, AID1801, AID463107, AID463118, AID463119, AID463122, AID463123, AID463129, AID463225, AID504400, AID504460]; format: functional
[17] = biological target: Sphingosine 1-phosphate receptor 4 (Homo sapiens, UniProt O95977); assay: Fluorescence dose response cell-based high throughput screening assay for agonists of the Sphingosine 1-Phosphate Receptor 4 (S1P4). [Related pubchem assays: 1509 (Primary screen.), 1523 (Confirmation screen in triplicates.)]; format: functional
[18] = biological target: Voltage-dependent T-type calcium channel subunit alpha-1H (Homo sapiens, UniProt O95180); assay: inhibition of CACNA1H calcium flux – cell-based, SynthLib3 library, HEK293 Cav3.2, fluorescence (AID 493041); format: functional
Voltage-dependent T-type calcium channel subunit alpha-1H, sequence (O95180 whole entry): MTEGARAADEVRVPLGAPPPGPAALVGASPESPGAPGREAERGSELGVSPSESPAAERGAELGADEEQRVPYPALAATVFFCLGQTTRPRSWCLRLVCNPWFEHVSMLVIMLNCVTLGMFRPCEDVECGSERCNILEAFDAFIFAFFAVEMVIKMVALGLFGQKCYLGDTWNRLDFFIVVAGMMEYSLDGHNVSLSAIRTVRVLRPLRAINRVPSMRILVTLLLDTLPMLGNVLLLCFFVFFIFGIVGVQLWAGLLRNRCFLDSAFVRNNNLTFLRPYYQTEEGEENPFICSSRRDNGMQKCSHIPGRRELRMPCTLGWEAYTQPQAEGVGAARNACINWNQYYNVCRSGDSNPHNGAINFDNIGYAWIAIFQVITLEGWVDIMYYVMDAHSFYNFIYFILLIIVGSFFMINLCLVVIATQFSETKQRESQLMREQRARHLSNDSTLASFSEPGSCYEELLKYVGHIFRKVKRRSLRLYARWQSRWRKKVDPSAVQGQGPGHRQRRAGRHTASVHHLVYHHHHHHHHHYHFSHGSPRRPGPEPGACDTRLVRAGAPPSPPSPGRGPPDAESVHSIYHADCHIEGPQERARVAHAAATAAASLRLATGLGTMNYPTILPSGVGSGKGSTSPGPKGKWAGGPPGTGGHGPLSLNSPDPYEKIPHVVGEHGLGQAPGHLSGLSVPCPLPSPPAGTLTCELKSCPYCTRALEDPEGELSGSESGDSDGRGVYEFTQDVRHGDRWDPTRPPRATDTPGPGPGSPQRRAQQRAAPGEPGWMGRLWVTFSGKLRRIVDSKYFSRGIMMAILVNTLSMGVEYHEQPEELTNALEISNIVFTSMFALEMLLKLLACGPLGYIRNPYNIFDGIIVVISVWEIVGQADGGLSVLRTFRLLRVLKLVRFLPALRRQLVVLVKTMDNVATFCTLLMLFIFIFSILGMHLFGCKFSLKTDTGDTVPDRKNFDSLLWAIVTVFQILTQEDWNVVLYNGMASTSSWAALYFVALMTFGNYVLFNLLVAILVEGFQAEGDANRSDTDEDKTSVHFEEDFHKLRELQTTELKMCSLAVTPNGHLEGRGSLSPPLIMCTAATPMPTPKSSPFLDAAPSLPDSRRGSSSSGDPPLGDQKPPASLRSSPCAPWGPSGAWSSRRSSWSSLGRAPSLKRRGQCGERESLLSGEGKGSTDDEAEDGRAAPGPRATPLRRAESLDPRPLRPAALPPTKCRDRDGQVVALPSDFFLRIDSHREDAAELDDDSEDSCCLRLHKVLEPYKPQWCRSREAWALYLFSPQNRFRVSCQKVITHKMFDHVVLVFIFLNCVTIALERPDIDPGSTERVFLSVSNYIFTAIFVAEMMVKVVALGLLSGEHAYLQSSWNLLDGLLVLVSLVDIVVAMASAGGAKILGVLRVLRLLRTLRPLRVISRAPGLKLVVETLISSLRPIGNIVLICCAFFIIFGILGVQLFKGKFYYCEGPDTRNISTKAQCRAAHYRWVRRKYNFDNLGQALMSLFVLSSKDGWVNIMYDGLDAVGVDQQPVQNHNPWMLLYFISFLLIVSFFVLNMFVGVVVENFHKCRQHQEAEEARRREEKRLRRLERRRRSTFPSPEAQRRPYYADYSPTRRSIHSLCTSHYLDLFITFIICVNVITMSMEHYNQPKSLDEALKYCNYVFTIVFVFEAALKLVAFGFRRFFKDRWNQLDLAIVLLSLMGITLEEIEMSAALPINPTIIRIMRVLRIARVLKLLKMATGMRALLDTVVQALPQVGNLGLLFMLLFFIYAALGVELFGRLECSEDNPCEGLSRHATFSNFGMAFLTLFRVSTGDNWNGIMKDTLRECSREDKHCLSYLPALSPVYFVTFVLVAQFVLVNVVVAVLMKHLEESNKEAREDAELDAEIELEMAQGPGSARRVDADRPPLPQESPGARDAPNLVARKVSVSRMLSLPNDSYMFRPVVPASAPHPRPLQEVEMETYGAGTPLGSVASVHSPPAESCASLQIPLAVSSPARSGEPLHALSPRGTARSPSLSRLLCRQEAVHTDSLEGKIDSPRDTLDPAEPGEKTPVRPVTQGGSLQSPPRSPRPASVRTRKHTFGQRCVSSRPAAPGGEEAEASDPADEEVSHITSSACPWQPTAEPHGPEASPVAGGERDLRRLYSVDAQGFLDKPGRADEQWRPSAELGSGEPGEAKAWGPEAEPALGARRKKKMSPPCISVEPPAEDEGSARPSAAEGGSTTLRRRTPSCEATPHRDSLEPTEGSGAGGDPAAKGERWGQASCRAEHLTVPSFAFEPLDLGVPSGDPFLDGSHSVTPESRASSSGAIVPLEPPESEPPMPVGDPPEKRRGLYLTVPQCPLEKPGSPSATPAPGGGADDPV

[19] = toxicity toward cultured mammalian cells – cell-based, plate reader, cherry-pick samples, cytotoxicity control, dose response (AID 504397); format: functional
CAAX prenyl protease 2 = biological target: T6, CAAX prenyl protease 2 (Saccharomyces cerevisiae S288c, UniProt Q03530); format: biochemical
T6 sequence (Q03530 whole entry): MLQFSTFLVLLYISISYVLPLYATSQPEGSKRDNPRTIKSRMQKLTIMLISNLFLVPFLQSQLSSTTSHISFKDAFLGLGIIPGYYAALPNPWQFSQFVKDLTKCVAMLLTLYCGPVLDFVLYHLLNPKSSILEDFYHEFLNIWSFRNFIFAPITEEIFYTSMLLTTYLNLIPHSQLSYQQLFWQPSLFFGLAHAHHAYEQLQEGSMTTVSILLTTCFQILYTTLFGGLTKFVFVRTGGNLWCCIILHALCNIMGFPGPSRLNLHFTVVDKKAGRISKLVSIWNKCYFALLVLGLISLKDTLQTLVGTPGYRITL

[20] = biological target: Tyrosine-protein phosphatase non-receptor type 12 (Homo sapiens, UniProt Q05209); assay: SAR Selectivity Analysis of small molecule inhibitors of PEST using pCAP in a fluorescence assay. [Related pubchem assays (depositor defined):AID1779, AID1784, AID2135]; format: functional
[21] = biological target: T3, Tyrosine-protein phosphatase non-receptor type 22; assay: SAR LYP1 Fluorescent Assay using OMFP substrate for In Vitro dose response studies - Set 3. [Related pubchem assays (depositor defined):AID1779, AID1784, AID2140, AID2686]; format: functional
[22] = biological target: T3, Tyrosine-protein phosphatase non-receptor type 22; assay: SAR LYP1 Fluorescent Assay using pCAP substrate for In Vitro dose response studies - Set 2. [Related pubchem assays (depositor defined):AID1779, AID1784, AID2135, AID449727]; format: functional
[23] = biological target: T3, Tyrosine-protein phosphatase non-receptor type 22; assay: SAR LYP1 Fluorescent Assay using OMFP substrate for In Vitro dose response studies - Set 2. [Related pubchem assays (depositor defined):AID1779, AID1784, AID2140, AID449726, AID488869]; format: functional
[24] = biological target: T4, Tyrosine-protein phosphatase non-receptor type 7; assay: inhibition of hematopoietic tyrosine phosphatase HePTP – biochemical, set 2, SAR follow-up (AID 449736); format: functional
[25] = biological target: T3, Tyrosine-protein phosphatase non-receptor type 22; assay: inhibition of lymphoid tyrosine phosphatase LYP – biochemical, pCAP fluorogenic substrate, fluorescence, set 3, SAR follow-up (AID 449727); format: functional

SMILES: Cc1cc(O)c2c(c1O)C(=O)[C@]13C(=C2O)C(=O)[C@@H]2[C@@H](O)[C@H]1[C@@H]1[C@H](O)[C@H]3C(=O)C3=C(O)c4c(O)cc(C)c(O)c4C(=O)[C@]312
EC50 [1]: 51.2 µM (active)
IC50 [2]: 19.5 µM (active)
IC50 [3]: > 80 µM (inactive)
EC50 [4]: 63.3 µM (active)
EC50 [5]: 43.1 µM (active)

SMILES: c1cc2c(cnc3cscc32)s1
EC50 [6]: 12 µM (not active)
EC50 [7]: 69.3 µM (not active)
EC50 [8]: 8.78 µM (active)

IC50 [9]: > 79.4 µM (inactive)
IC50 [10]: > 79.4 µM (inactive)
IC50 [11]: > 79.4 µM (inactive)
SMILES: Cc1cc(C(=O)NCCCN2CCCC2=O)cs1

IC50 (Fatty acid synthase [12]): 0.434 µM (active)
IC50 (Fatty acid synthase [13]): 0.469 µM (active)
AC50 [14]: 13 µM (active)
EC50 [15]: 1.95 µM (active)
EC50 [16]: 3.12 µM (active)
EC50 [17]: 3.65 µM (active)
SMILES: O=S(=O)(c1ccc(N2CCC(c3ccc(Cl)cc3)=N2)cc1)N(CCO)CCO

EC50 [18]: 1.8 µM (active)
SMILES: CC(C)Cc1nnc(NC(=O)COc2ccc(Cl)cc2Cl)o1

SMILES: O=C(Nc1ccc(N2CCOCC2)c(Cl)c1)c1cc2ccccc2o1
AC50 [19]: 260 µM (active)
AC50 (CAAX prenyl protease 2): 3.46 µM (active)

IC50 [20]: > 100 µM (inactive)
IC50 [21]: > 100 µM (inactive)
IC50 [22]: > 100 µM (inactive)
IC50 [23]: > 100 µM (inactive)
IC50 [24]: > 100 µM (inactive)
IC50 [25]: > 100 µM (inactive)
SMILES: COc1ccccc1NS(=O)(=O)c1cccc(C(=O)NN=Cc2ccc(OCC(=O)O)cc2)c1
